Data: US6808904B2, “Herbicide-tolerant protox genes produced by DNA shuffling” (priority 1994, dated 2004)

Experiments:
[1] = tested on: Arabidopsis line expressing AraC-2Ile+AraC305Leu; experiment: Cross tolerance in a seed germination assay, homozygous Arabidopsis line with AraC-2Ile+AraC305Leu; type: in vivo, Arabidopsis thaliana; conditions: AraC-2Ile+AraC305Leu line vs wt
Experimental: Using the procedure described above, an Arabidopsis protox-1 cDNA containing a TAC to ATG (Tyrosine to Methionine) change at nucleotides 1306-1308 in the protox-1 sequence (SEQ ID NO:1) was fused to the native protox-1 promoter fragment and transformed into Arabidopsis thaliana. […] Seed from the vacuum infiltrated plants was collected and plated on a range (10.0 nM-1.0 uM) of a protox inhibitory aryluracil herbicide of formula XVII. Multiple experiments with wild type Arabidopsis have shown that a 10.0 nM concentration of this compound is sufficient to prevent normal seedling germination. Transgenic seeds expressing the AraC-2Met altered enzyme fused to the native protox-1 promoter produced normal Arabidopsis seedlings at herbicide concentrations up to 500 nM, indicating at least 50-fold higher herbicide tolerance when compared to wild-type Arabidopsis. This promoter/altered protox enzyme fusion therefore functions as an effective selectable marker for plant transformation. Several of the plants that germinated on 100.0 nM of protox-inhibiting herbicide were transplanted to soil, grown 2-3 weeks, and tested in a spray assay with various concentrations of the protox-inhibiting herbicide. When compared to empty vector control transformants, the AraPT1Pro/AraC-2Met transgenics were >10-fold more tolerant to the herbicide spray.
Using the procedure described above, an Arabidopsis protox-1 cDNA containing both a TAC to ATC (tyrosine to isoleucine) change at nucleotides 1306-1308 and a TCA to TTA (serine to leucine) change at nucleotides 945-947 in the protox-1 sequence (SEQ ID NO:1) was fused to the native protox-1 promoter fragment and transformed into Arabidopsis thaliana.

maize protox-1 mutants = experiment: Mutant screens of maize protox-1 (pMut-3) in the E. coli system; type: cell-based; conditions: screen on this herbicide
Experimental: The pMut-3 plasmid was transformed into the mutator XL1-Red strain as described above and the mutated DNA was isolated and plated on a herbicide concentration (formula XVII) that was lethal to the unmutagenized pMut-3 maize protox gene. Herbicide tolerant colonies were isolated after two days at 37° C. and analyzed as described above. […] Three of these mutations correspond to amino acid changes previously shown to confer tolerance at the homologous position in the Arabidopsis protox-1 gene. Two of the three are pMzC-1Val and pMzC-1Thr, converting the alanine (GCT) at amino acid 164 (SEQ ID NO:6) to either valine ([…]) or to threonine (ACT). This position corresponds to the pAraC-1 mutations described above (see, Table 1B; sub-sequence 3). The third analogous change, pMzC-3Ser, converts the glycine (GGT) at amino acid 165 to Serine (AGT), corresponding to the AraC-3Ser mutation described above (see, Table 1B; sub-sequence 4).
Additional mutant screens performed as described earlier in this example, except using formulas XXIIIa and XXIIIb instead of XVII, identified three additional amino acid changes that confer tolerant protox enzymes. […]

[2] = target: T1, plant protox mutants (Arabidopsis protox-1) in SASX38 (Arabidopsis thaliana, UniProt P55826, A220V/T56K); experiment: Bacterial cross-tolerance testing of resistant mutant plasmids in SASX38, Arabidopsis protox-1 mutants; type: cell-based; design: key to Cross tolerance, AraC-1Val / Cross tolerance, AraC-2Cys / Cross tolerance, AraC-1Thr / Cross tolerance, AraC-3Thr / Cross tolerance, AraC-2Ile / Cross tolerance, AraC-2Cys + AraC425Ser: + = 10× or more tolerant than WT; ++ = 100× or more tolerant than WT; − = no cross tolerance; conditions: mutant AraC-1Val vs WT plasmid in SASX38
T1 construct: contains only 17 amino acids of the putative chloroplast transit peptide; expressed in transfected cells; host or cells: E. coli SASX38 (hemG mutant)
T1 sequence (P55826 41-537 T56K/A220V): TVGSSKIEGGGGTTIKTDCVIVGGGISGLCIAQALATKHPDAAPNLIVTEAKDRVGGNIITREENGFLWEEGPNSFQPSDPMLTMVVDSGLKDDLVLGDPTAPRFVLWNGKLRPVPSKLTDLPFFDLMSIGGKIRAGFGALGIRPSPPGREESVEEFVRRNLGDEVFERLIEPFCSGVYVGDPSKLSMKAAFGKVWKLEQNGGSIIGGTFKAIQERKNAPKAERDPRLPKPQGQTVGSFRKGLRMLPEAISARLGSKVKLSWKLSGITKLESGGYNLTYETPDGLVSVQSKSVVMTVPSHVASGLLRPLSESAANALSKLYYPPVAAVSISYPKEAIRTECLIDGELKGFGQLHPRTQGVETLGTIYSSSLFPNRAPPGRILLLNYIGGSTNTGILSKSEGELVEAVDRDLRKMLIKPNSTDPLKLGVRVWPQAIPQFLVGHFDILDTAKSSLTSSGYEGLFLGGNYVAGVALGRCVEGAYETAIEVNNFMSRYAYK
Experimental: (§1) Resistant mutant plasmids, originally identified based on resistance against a single protox inhibitory herbicide, were tested against a spectrum of other protox inhibiting compounds. For this test, the SASX38 strain containing the wild-type plasmid is plated on a range of concentrations of each compound to determine the lethal concentration for each one. Resistant mutant plasmids in SASX38 are plated and scored for the ability to survive on a concentration of each compound at least 10 fold higher than the concentration that is lethal to the SASX38 strain containing the wild-type plasmid.

[3] = target: T2, plant protox mutants (Arabidopsis protox-1) in SASX38 (Arabidopsis thaliana, UniProt P55826, T56K/Y426C); experiment: as above; type: cell-based; design: key to Cross tolerance, AraC-1Val / Cross tolerance, AraC-2Cys / Cross tolerance, AraC-1Thr / Cross tolerance, AraC-3Thr / Cross tolerance, AraC-2Ile / Cross tolerance, AraC-2Cys + AraC425Ser: + = 10× or more tolerant than WT; ++ = 100× or more tolerant than WT; − = no cross tolerance; conditions: mutant AraC-2Cys vs WT plasmid in SASX38
T2 construct: contains only 17 amino acids of the putative chloroplast transit peptide; expressed in transfected cells; host or cells: E. coli SASX38 (hemG mutant)
T2 sequence (P55826 41-537 T56K/Y426C): as the sequence (P55826 41-537 T56K/A220V) above, with V180A, Y386C counted along it
Experimental: as §1

[4] = target: T3, plant protox mutants (Arabidopsis protox-1) in SASX38 (Arabidopsis thaliana, UniProt P55826, A220T/T56K); experiment: as above; type: cell-based; design: key to Cross tolerance, AraC-1Val / Cross tolerance, AraC-2Cys / Cross tolerance, AraC-1Thr / Cross tolerance, AraC-3Thr / Cross tolerance, AraC-2Ile / Cross tolerance, AraC-2Cys + AraC425Ser: + = 10× or more tolerant than WT; ++ = 100× or more tolerant than WT; − = no cross tolerance; conditions: mutant AraC-1Thr vs WT plasmid in SASX38
T3 construct: contains only 17 amino acids of the putative chloroplast transit peptide; expressed in transfected cells; host or cells: E. coli SASX38 (hemG mutant)
T3 sequence (P55826 41-537 T56K/A220T): as the sequence (P55826 41-537 T56K/A220V) above, with V180T counted along it
Experimental: as §1

[5] = tested on: plant protox mutants (Arabidopsis protox-1) in SASX38; experiment: as above; type: cell-based; design: key to Cross tolerance, AraC-1Val / Cross tolerance, AraC-2Cys / Cross tolerance, AraC-1Thr / Cross tolerance, AraC-3Thr / Cross tolerance, AraC-2Ile / Cross tolerance, AraC-2Cys + AraC425Ser: + = 10× or more tolerant than WT; ++ = 100× or more tolerant than WT; − = no cross tolerance; conditions: mutant AraC-3Thr vs WT plasmid in SASX38
Experimental: as §1

[6] = target: T4, plant protox mutants (MzC-1Val, maize protox-1) in SASX38 (Arabidopsis thaliana, UniProt P55826, A220V/A252T/A259N/A262P/A292S/A82G/A83V/D204A/D323E/D487E/D93A/DEL80-81/E103P/E263P/E288N/E311D/E351S/E499D/F107Y/F178L/F250I/F483L/G171P/G277A/G306S/G313K/G344N/G441S/H340Y/I100T/I174L/I370V/I421V/I485L/I71T/I87L/INS101VE/K237R/K257S/K359R/K388Q/K457N/K465V/K78R/K92R/L137F/L159P/L310S/L325V/L345I/L360F/L436V/L86V/M122V/N105E/N149E/N241T/N258K/N316V/N355D/N459T/N85D/P266A/P418D/P458S/P84G/Q240E/Q272K/R284A/R293S/S186P/S291T/S305T/S312D/S330A/S352D/S369T/S430A/S439T/S460A/S491A/S492A/S495R/S496G/T141N/T160A/T318E/T379K/T397S/T461V/T488A/T494D/T56K/V126A/V334I/V337I/V95P); experiment: Bacterial cross-tolerance testing of resistant mutant plasmids in SASX38, maize protox-1 mutant; type: cell-based; conditions: mutant MzC-1Val vs WT plasmid in SASX38
T4 construct: expressed in transfected cells; host or cells: E. coli SASX38 (hemG mutant)
T4 sequence (P55826 other isoform, or with tags, fused parts or gaps with the stated changes): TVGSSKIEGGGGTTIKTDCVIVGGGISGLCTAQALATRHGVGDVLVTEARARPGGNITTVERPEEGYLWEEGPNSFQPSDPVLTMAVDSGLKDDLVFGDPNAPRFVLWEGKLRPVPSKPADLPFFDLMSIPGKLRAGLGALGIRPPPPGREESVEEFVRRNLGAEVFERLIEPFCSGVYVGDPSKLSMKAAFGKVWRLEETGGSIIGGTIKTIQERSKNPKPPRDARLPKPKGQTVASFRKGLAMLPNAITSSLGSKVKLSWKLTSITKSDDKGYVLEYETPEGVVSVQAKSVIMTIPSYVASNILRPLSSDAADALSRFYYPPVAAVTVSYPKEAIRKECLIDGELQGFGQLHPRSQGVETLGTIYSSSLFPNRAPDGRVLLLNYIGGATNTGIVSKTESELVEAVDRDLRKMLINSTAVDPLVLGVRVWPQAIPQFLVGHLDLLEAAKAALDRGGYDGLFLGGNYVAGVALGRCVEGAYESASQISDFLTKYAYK
Experimental: as §1

[7] = target: T5, plant protox mutants (Arabidopsis protox-1) in SASX38 (Arabidopsis thaliana, UniProt P55826, N425S/T56K/Y426M); experiment: Bacterial cross-tolerance testing of resistant mutant plasmids in SASX38, Arabidopsis protox-1 mutants; type: cell-based; design: key to Cross tolerance, AraC-1Val / Cross tolerance, AraC-2Cys / Cross tolerance, AraC-1Thr / Cross tolerance, AraC-3Thr / Cross tolerance, AraC-2Ile / Cross tolerance, AraC-2Cys + AraC425Ser: + = 10× or more tolerant than WT; ++ = 100× or more tolerant than WT; − = no cross tolerance; conditions: mutant AraC-2Met + AraC425Ser
T5 construct: contains only 17 amino acids of the putative chloroplast transit peptide; expressed in transfected cells; host or cells: E. coli SASX38 (hemG mutant)
T5 sequence (P55826 41-537 T56K/N425S/Y426M): as the sequence (P55826 41-537 T56K/A220V) above, with V180A, N385S, Y386M counted along it
Experimental: as §1

[8] = target: T6, plant protox mutants (Arabidopsis protox-1) in SASX38 (Arabidopsis thaliana, UniProt P55826, N425S/T56K/Y426C); experiment: as above; type: cell-based; design: key to Cross tolerance, AraC-1Val / Cross tolerance, AraC-2Cys / Cross tolerance, AraC-1Thr / Cross tolerance, AraC-3Thr / Cross tolerance, AraC-2Ile / Cross tolerance, AraC-2Cys + AraC425Ser: + = 10× or more tolerant than WT; ++ = 100× or more tolerant than WT; − = no cross tolerance; conditions: mutant AraC-2Cys + AraC425Ser
T6 construct: contains only 17 amino acids of the putative chloroplast transit peptide; expressed in transfected cells; host or cells: E. coli SASX38 (hemG mutant)
T6 sequence (P55826 41-537 T56K/N425S/Y426C): as the sequence (P55826 41-537 T56K/A220V) above, with V180A, N385S, Y386C counted along it
Experimental: as §1

[9] = target: T7, plant protox mutants (Arabidopsis protox-1) in SASX38 (Arabidopsis thaliana, UniProt P55826, N425S/T56K/Y426L); experiment: as above; type: cell-based; design: key to Cross tolerance, AraC-1Val / Cross tolerance, AraC-2Cys / Cross tolerance, AraC-1Thr / Cross tolerance, AraC-3Thr / Cross tolerance, AraC-2Ile / Cross tolerance, AraC-2Cys + AraC425Ser: + = 10× or more tolerant than WT; ++ = 100× or more tolerant than WT; − = no cross tolerance; conditions: mutant AraC-2Leu + AraC425Ser
T7 construct: contains only 17 amino acids of the putative chloroplast transit peptide; expressed in transfected cells; host or cells: E. coli SASX38 (hemG mutant)
T7 sequence (P55826 41-537 T56K/N425S/Y426L): as the sequence (P55826 41-537 T56K/A220V) above, with V180A, N385S, Y386L counted along it
Experimental: as §1

[10] = target: T8, plant protox mutants (Arabidopsis protox-1) in SASX38 (Arabidopsis thaliana, UniProt P55826, A220L/T56K); experiment: as above; type: cell-based; design: key to Cross tolerance, AraC-1Val / Cross tolerance, AraC-2Cys / Cross tolerance, AraC-1Thr / Cross tolerance, AraC-3Thr / Cross tolerance, AraC-2Ile / Cross tolerance, AraC-2Cys + AraC425Ser: + = 10× or more tolerant than WT; ++ = 100× or more tolerant than WT; − = no cross tolerance; conditions: mutant AraC-1Leu
T8 construct: contains only 17 amino acids of the putative chloroplast transit peptide; expressed in transfected cells; host or cells: E. coli SASX38 (hemG mutant)
T8 sequence (P55826 41-537 T56K/A220L): as the sequence (P55826 41-537 T56K/A220V) above, with V180L counted along it
Experimental: as §1

COC(=O)c1cc(Oc2ccc(Cl)cc2Cl)ccc1[N+](=O)[O-] [IVb]
Tolerance [1]: + (+ ≧ 10× more tolerant than wt)

CCOc1cc(Oc2ccc(C(F)(F)F)cc2Cl)ccc1[N+](=O)[O-] [IVc]
Tolerance [1]: + (+ ≧ 10× more tolerant than wt)

Cn1nc(-c2ncc(Cl)cc2F)c(Cl)c1OC(F)F [Formula XXIIIa]
tolerance of maize enzyme Mz347Ser453Thr (maize protox-1 mutants; double mutant): highly tolerant

CCOC(=O)COc1cc(-c2nn(C)c(OC(F)F)c2Cl)c(F)cc1Cl [XII]
Cross tolerance, AraC-1Val [2]: + (+ = 10× or more tolerant than WT) | Cross tolerance, AraC-2Cys [3]: − | Cross tolerance, AraC-1Thr [4]: ++ (++ = 100× or more tolerant than WT) | Cross tolerance, AraC-3Thr [5]: ++ (++ = 100× or more tolerant than WT) | Cross tolerance, MzC-1Val [6]: ++ (++ = 100× or more tolerant than WT)

CS(=O)(=O)NC(=O)c1cc(Oc2ccc(C(F)(F)F)cc2Cl)ccc1[N+](=O)[O-] [III]
Tolerance [1]: + (+ ≧ 10× more tolerant than wt)

Cn1nc(-c2c(F)cc(Cl)c(=O)n2C)c(Cl)c1OC(F)F [Formula XXIIIb]
tolerance of maize enzyme Mz88Cys (maize protox-1 mutants; arginine 88 to cysteine): highly tolerant

CCOC(=O)C(C)OC(=O)c1cc(Oc2ccc(C(F)(F)F)cc2Cl)ccc1[N+](=O)[O-] (stereo not shown) [IVd]
Tolerance [1]: ± (± ≦ 10× more tolerant than wt)

O=C([O-])c1cc(Oc2ccc(C(F)(F)F)cc2Cl)ccc1[N+](=O)[O-].[Na+] [II]
Tolerance [1]: + (+ ≧ 10× more tolerant than wt)

CC(Cl)C(=O)Nc1c([N+](=O)[O-])cnn1-c1c(Cl)cc(C(F)F)cc1Cl (stereo not shown) [XXIa]
Tolerance [1]: + (+ ≧ 10× more tolerant than wt)

Cc1nn(-c2cc(NS(C)(=O)=O)c(Cl)cc2Cl)c(=O)n1C(F)F [X]
Tolerance [1]: + (+ ≧ 10× more tolerant than wt)

C#CCN1C(=O)COc2cc(F)c(N3C(=O)C4=C(CCCC4)C3=O)cc21 [XVI]
Cross tolerance, AraC-1Val [2]: − | Cross tolerance, AraC-2Met + AraC425Ser [7]: ++ (++ = 100× or more tolerant than WT) | Cross tolerance, AraC-2Cys [3]: − | Cross tolerance, AraC-1Thr [4]: − | Cross tolerance, AraC-3Thr [5]: − | Cross tolerance, AraC-2Cys + AraC425Ser [8]: + (+ = 10× or more tolerant than WT) | Cross tolerance, AraC-2Leu + AraC425Ser [9]: ++ (++ = 100× or more tolerant than WT) | Tolerance [1]: +++ (+++ ≧ 1000× more tolerant than wt) | Cross tolerance, MzC-1Val [6]: + (+ = 10× or more tolerant than WT)

C#CC(C)Oc1cc(N2C(=O)C3=C(CCCC3)C2=O)c(F)cc1Cl (stereo not shown) [XV]
Cross tolerance, AraC-1Val [2]: + (+ = 10× or more tolerant than WT) | Cross tolerance, AraC-2Met + AraC425Ser [7]: ++ (++ = 100× or more tolerant than WT) | Cross tolerance, AraC-2Cys [3]: + (+ = 10× or more tolerant than WT) | Cross tolerance, AraC-1Thr [4]: + (+ = 10× or more tolerant than WT) | Cross tolerance, AraC-1Leu [10]: ++ (++ = 100× or more tolerant than WT) | Cross tolerance, AraC-3Thr [5]: + (+ = 10× or more tolerant than WT) | Cross tolerance, AraC-2Cys + AraC425Ser [8]: ++ (++ = 100× or more tolerant than WT) | Cross tolerance, MzC-1Val [6]: + (+ = 10× or more tolerant than WT)
